Experimental data reported in ChEMBL document CHEMBL1151281, “Botcinins A, B, C, and D, metabolites produced by Botrytis cinerea, and their antifungal activity against Magnaporthe grisea, a pathogen of rice blast disease” (2005).
≈ marks a conversion by molar mass, not a printed value. Calls of active or inactive are those of the source. No cut-off for these calls is given here.

test system: Pyricularia grisea; assay: Antifungal activity against Magnaporthe grisea IFO 30733 at 800 uM after 3 days; type: functional, organism-based; settings: not given

Compound	Activity
CC(=O)O[C@H]1[C@@H](C)C(=O)O[C@H]2[C@H](C)[C@@H](O)[C@H](C)O[C@@]21C	inactive

test system: Pyricularia grisea; assay: Antifungal activity against Magnaporthe grisea IFO 30733 after 3 days; type: functional; settings: IFO 30733, 72 h

Compound	MIC [µM]
CCCC[C@H](O)CCC(=O)O[C@@H]1[C@@H](C)[C@@H]2OC(=O)[C@H](C)[C@H](OC(C)=O)[C@@]2(C)O[C@H]1C	100 (≈ 42.9 µg/mL)
CCCC[C@H](O)/C=C/C(=O)O[C@@H]1[C@@H](C)[C@@H]2OC(=O)[C@H](C)[C@H](OC(C)=O)[C@@]2(C)O[C@H]1C [BOTCININ A]	100 (≈ 42.7 µg/mL)
CCCCCC[C@H](O)/C=C/C(=O)O[C@@H]1[C@@H](C)[C@@H]2OC(=O)[C@H](C)[C@H](OC(C)=O)[C@@]2(C)O[C@H]1C [BOTCININ B]	12.5 (≈ 5.68 µg/mL)
CCCCCC[C@H](O)/C=C/C(=O)O[C@@H]1[C@@H](C)[C@@H]2OC(=O)[C@@H](C)[C@H](OC(C)=O)[C@@]2(C)O[C@H]1C [BOTCININ C]	100 (≈ 45.5 µg/mL)
CCCC[C@H](O)/C=C/C(=O)O[C@@H]1[C@@H](C)[C@@H]2OC(=O)C(C)=C[C@@]2(C)O[C@H]1C [BOTCININ D]	12.5 (≈ 4.58 µg/mL)
